Reference: ChEMBL document CHEMBL1156330, “Discovery of a spiroindane based compound as a potent, selective, orally bioavailable melanocortin subtype-4 receptor agonist” (Bioorg Med Chem Lett, 2010)
One block for each compound: values may come before it.

Columns and labels:
[1] = molecular target: T1, Melanocyte-stimulating hormone receptor (Homo sapiens, UniProt Q01726); assay: Agonist activity at human MC1R expressed in CHO cells assessed as stimulation of intracellular cAMP accumulation at 10 uM relative to alpha-MSH; type: functional, cell-based
Target sequence in this assay (Q01726 whole entry, looked up): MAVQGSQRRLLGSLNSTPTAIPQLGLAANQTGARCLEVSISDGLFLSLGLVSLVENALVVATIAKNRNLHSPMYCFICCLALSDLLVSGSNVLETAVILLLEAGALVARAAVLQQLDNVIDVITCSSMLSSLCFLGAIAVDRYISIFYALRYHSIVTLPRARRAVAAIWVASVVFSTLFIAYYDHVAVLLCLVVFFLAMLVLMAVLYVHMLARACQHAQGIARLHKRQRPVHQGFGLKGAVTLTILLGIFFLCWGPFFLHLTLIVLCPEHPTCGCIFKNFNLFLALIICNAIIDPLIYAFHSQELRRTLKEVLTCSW

[2] = Clearance in rhesus monkey at 0.5 mg/kg, iv and 2 mg/kg, po; type: ADME, organism-based, Macaca mulatta; conditions: in vivo
Melanocortin receptor 3 [3] = molecular target: T2, Melanocortin receptor 3 (Homo sapiens, UniProt P41968); assay: Agonist activity at human MC3R expressed in CHO cells assessed as stimulation of intracellular cAMP accumulation at 10 uM relative to alpha-MSH; type: functional, cell-based
Rattus norvegicus [4] = assay: Erectogenic activity in rat assessed as spontaneous erections at 0.01 mg/kg, iv for 30 mins; type: functional
Rattus norvegicus [5] = assay: Erectogenic activity in rat assessed as spontaneous erections at 1 mg/kg, iv for 30 mins; type: functional
Melanocortin receptor 3 [6] = molecular target: T2, Melanocortin receptor 3; assay: Agonist activity at human MC3R expressed in CHO cells assessed as stimulation of intracellular cAMP accumulation; type: functional, cell-based
[7] = molecular target: Melanocortin receptor 4 (Rattus norvegicus) (UniProt P70596); assay: Agonist activity at rat MC4R expressed in CHO cells assessed as stimulation of intracellular cAMP accumulation at 10 uM relative to alpha-MSH; type: functional, cell-based
[8] = molecular target: Melanocortin receptor 3 (Rattus norvegicus) (UniProt P32244); assay: Agonist activity at rat MC3R expressed in CHO cells assessed as stimulation of intracellular cAMP accumulation at 10 uM relative to alpha-MSH; type: functional, cell-based
[9] = molecular target: T1, Melanocyte-stimulating hormone receptor; assay: Displacement of [125I]NDP-alpha-MSH from human MC1R expressed in CHO cells; type: cell-based
Target sequence in this assay (Q01726 whole entry): as the sequence (Q01726 whole entry, looked up) above

[10] = molecular target: Melanocortin receptor 4 (Mus musculus) (UniProt P56450); assay: Agonist activity at mouse MC4R expressed in CHO cells assessed as stimulation of intracellular cAMP accumulation at 10 uM relative to alpha-MSH; type: functional, cell-based
Melanocortin receptor 4 [11] = molecular target: T3, Melanocortin receptor 4 (Homo sapiens, UniProt P32245); assay: Displacement of [125I]NDP-alpha-MSH from human MC4R expressed in CHO cells; type: cell-based
Rattus norvegicus [12] = assay: Erectogenic activity in rat assessed as spontaneous erections at 0.1 mg/kg, iv for 30 mins; type: functional
Rattus norvegicus [13] = assay: Erectogenic activity in iv dosed rat assessed as spontaneous erections measured for 30 mins; type: functional, organism-based
Rattus norvegicus [14] = assay: Erectogenic activity in rat assessed as spontaneous erections at 3 mg/kg, iv for 30 mins; type: functional
Melanocortin receptor 3 [15] = molecular target: T2, Melanocortin receptor 3; assay: Displacement of [125I]NDP-alpha-MSH from human MC3R expressed in CHO cells; type: cell-based
Melanocortin receptor 3 [16] = molecular target: Melanocortin receptor 3 (Rattus norvegicus, UniProt P32244); assay: Agonist activity at rat MC3R expressed in CHO cells assessed as stimulation of intracellular cAMP accumulation; type: functional, cell-based
[17] = Half life in rhesus monkey at 0.5 mg/kg, iv and 2 mg/kg, po; type: ADME, organism-based, Macaca mulatta; conditions: in vivo
[18] = Volume of distribution at steady state in rhesus monkey at 0.5 mg/kg, iv and 2 mg/kg, po; type: ADME, organism-based, Macaca mulatta; conditions: in vivo, read-out: Vdss
[19] = Bioavailability in Beagle dog at 0.5 mg/kg, iv and 1.0 mg/kg, po; type: ADME, organism-based, Canis lupus familiaris; conditions: in vivo
Melanocortin receptor 4 [20] = molecular target: Melanocortin receptor 4 (Mus musculus, UniProt P56450); assay: Agonist activity at mouse MC4R expressed in CHO cells assessed as stimulation of intracellular cAMP accumulation; type: functional, cell-based
[21] = Half life in Sprague-Dawley rat at 1 mg/kg, iv and 4 mg/kg, po; type: ADME, organism-based; conditions: in vivo
Rattus norvegicus [22] = assay: Antiobesity activity in po dosed DIO rat assessed as decrease in body weight after 14 days
[23] = Clearance in Beagle dog at 0.5 mg/kg, iv and 1.0 mg/kg, po; type: ADME, organism-based, Canis lupus familiaris; conditions: in vivo
[24] = Volume of distribution at steady state in Sprague-Dawley rat at 1 mg/kg, iv and 4 mg/kg, po; type: ADME, organism-based; conditions: in vivo, read-out: Vdss
[25] = Half life in Beagle dog at 0.5 mg/kg, iv and 1.0 mg/kg, po; type: ADME, organism-based, Canis lupus familiaris; conditions: in vivo
Melanocortin receptor 4 [26] = molecular target: T3, Melanocortin receptor 4; assay: Agonist activity at human MC4R expressed in CHO cells assessed as stimulation of intracellular cAMP accumulation; type: functional, cell-based
Melanocortin receptor 4 [27] = molecular target: Melanocortin receptor 4 (Rattus norvegicus, UniProt P70596); assay: Agonist activity at rat MC4R expressed in CHO cells assessed as stimulation of intracellular cAMP accumulation; type: functional, cell-based
[28] = Clearance in Sprague-Dawley rat at 1 mg/kg, iv and 4 mg/kg, po; type: ADME, organism-based; conditions: in vivo
Melanocortin receptor 4 [29] = molecular target: T3, Melanocortin receptor 4; assay: Agonist activity at human MC4R expressed in CHO cells assessed as stimulation of intracellular cAMP accumulation at 10 uM relative to alpha-MSH; type: functional, cell-based
Rattus norvegicus [30] = assay: Antiobesity activity in po dosed DIO rat assessed as decrease in food intake after 14 days
Melanocortin receptor 5 [31] = molecular target: T4, Melanocortin receptor 5 (Homo sapiens, UniProt P33032); assay: Agonist activity at human MC5R expressed in CHO cells assessed as stimulation of intracellular cAMP accumulation at 10 uM relative to alpha-MSH; type: functional, cell-based
[32] = Volume of distribution at steady state in Beagle dog at 0.5 mg/kg, iv and 1.0 mg/kg, po; type: ADME, organism-based, Canis lupus familiaris; conditions: in vivo, read-out: Vdss
[33] = Bioavailability in rhesus monkey at 0.5 mg/kg, iv and 2 mg/kg, po; type: ADME, organism-based, Macaca mulatta; conditions: in vivo
[34] = molecular target: T1, Melanocyte-stimulating hormone receptor; assay: Agonist activity at human MC1R expressed in CHO cells assessed as stimulation of intracellular cAMP accumulation; type: functional, cell-based
Target sequence in this assay (Q01726 whole entry): as the sequence (Q01726 whole entry, looked up) above

Melanocortin receptor 5 [35] = molecular target: T4, Melanocortin receptor 5; assay: Displacement of [125I]NDP-alpha-MSH from human MC5R expressed in CHO cells; type: cell-based
[36] = Bioavailability in Sprague-Dawley rat at 1 mg/kg, iv and 4 mg/kg, po; type: ADME, organism-based; conditions: in vivo
Rattus norvegicus [37] = assay: Erectogenic activity in rat assessed as spontaneous erections at 0.001 mg/kg, iv for 30 mins; type: functional
Rattus norvegicus [38] = assay: Erectogenic activity in rat assessed as spontaneous erections at 1 ug/kg, iv for 30 mins; type: functional

T2 sequence (P41968 whole entry): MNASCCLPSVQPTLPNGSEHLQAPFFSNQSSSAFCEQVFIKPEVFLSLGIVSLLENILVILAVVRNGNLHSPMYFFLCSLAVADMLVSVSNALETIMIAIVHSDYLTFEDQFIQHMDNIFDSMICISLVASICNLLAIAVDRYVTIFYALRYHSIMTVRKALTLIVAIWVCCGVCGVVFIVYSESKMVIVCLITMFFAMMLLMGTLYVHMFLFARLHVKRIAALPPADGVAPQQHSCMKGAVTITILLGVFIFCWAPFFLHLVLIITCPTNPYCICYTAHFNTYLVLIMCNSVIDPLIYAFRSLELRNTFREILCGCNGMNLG
T3 sequence (P32245 whole entry): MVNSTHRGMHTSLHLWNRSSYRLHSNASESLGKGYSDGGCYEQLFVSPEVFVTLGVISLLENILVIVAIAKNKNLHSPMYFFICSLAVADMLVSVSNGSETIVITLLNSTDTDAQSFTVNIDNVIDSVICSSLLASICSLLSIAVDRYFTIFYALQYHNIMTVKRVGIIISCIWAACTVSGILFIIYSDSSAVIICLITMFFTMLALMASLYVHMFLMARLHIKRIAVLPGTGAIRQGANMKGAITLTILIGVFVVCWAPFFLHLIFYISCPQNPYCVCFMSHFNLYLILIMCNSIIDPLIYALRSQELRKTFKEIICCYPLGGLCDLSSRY
T4 sequence (P33032 whole entry): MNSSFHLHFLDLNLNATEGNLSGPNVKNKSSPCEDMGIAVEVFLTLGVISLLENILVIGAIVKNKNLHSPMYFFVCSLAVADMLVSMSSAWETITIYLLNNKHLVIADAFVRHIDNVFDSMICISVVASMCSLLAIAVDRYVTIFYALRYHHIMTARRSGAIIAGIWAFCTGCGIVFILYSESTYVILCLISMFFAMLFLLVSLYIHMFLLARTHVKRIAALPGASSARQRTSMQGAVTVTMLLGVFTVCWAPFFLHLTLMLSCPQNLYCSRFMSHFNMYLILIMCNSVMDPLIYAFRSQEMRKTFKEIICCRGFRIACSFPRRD
Sequence of Melanocortin receptor 4 (Mus musculus, UniProt P56450) (P56450 whole entry): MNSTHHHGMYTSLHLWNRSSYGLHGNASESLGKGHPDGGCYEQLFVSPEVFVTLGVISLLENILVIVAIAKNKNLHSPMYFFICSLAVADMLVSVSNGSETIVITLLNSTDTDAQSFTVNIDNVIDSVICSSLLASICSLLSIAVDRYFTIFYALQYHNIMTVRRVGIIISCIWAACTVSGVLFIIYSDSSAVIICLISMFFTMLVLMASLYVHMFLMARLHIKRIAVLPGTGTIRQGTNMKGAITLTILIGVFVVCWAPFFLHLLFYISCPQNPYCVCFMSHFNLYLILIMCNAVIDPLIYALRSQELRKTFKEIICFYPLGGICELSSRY
Sequence of Melanocortin receptor 4 (Mus musculus) (P56450 whole entry): as above
Sequence of Melanocortin receptor 3 (Rattus norvegicus, UniProt P32244) (P32244 whole entry): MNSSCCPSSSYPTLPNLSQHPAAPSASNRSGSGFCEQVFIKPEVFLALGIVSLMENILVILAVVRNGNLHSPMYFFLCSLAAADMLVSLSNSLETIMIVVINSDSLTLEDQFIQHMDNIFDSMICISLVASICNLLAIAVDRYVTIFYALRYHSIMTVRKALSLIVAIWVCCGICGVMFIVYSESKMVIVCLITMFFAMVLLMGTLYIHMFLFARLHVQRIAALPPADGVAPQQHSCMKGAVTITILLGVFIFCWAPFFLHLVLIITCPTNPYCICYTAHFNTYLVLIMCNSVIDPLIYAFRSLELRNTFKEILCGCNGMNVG
Sequence of Melanocortin receptor 3 (Rattus norvegicus) (P32244 whole entry): as above
Sequence of Melanocortin receptor 4 (Rattus norvegicus) (P70596 whole entry): as the sequence (P56450 whole entry) above, with Y21H, P36S, S199T, T239A, S329P, S330G counted along it
Sequence of Melanocortin receptor 4 (Rattus norvegicus, UniProt P70596) (P70596 whole entry): as the sequence (P56450 whole entry) above, with Y21H, P36S, S199T, T239A, S329P, S330G counted along it

Emax [1]: 18% | clearance [2]: 9.6 mL/min/kg | Activity (Melanocortin receptor 3 [3]): 71% | EC50 (Melanocortin receptor 3 [6]): 351 nM | Activity [7]: 126% | Activity [8]: 97% | IC50 [9]: 1940 nM | Activity [10]: 197% | IC50 (Melanocortin receptor 4 [11]): 13 nM | IC50 (Melanocortin receptor 3 [15]): 890 nM | EC50 (Melanocortin receptor 3 [16]): 997 nM | half-life [17]: 3.9 h | Vd [18]: 3.5 L/kg | bioavailability [19]: 71% | EC50 (Melanocortin receptor 4 [20]): 22 nM | half-life [21]: 4.5 h | clearance [23]: 3.5 mL/min/kg | Vd [24]: 5.1 L/kg | half-life [25]: 11.2 h | EC50 (Melanocortin receptor 4 [26]): 4.9 nM | EC50 (Melanocortin receptor 4 [27]): 2 nM | clearance [28]: 12 mL/min/kg | Emax (Melanocortin receptor 4 [29]): 105% | Activity (Melanocortin receptor 5 [31]): 9% | Vd [32]: 3.5 L/kg | bioavailability [33]: 53% | EC50 [34]: 1020 nM | IC50 (Melanocortin receptor 5 [35]): 83.9 nM | bioavailability [36]: 33%
SMILES: CC(=O)NC(C)(C)[C@@H]1CC2(CCN(C(=O)[C@@H]3CN(C(C)(C)C)C[C@H]3c3ccc(F)cc3F)CC2)c2cc(Cl)c(C)cc21
Activity (Rattus norvegicus [4]): 92% | Activity (Rattus norvegicus [5]): 88% | Activity (Rattus norvegicus [12]): 100% | Activity (Rattus norvegicus [13]): Dose-dependent effect | Activity (Rattus norvegicus [14]): 75% | Activity (Rattus norvegicus [22]): Dose-dependent effect | Activity (Rattus norvegicus [30]): Dose-dependent effect | Activity (Rattus norvegicus [37]): 75% | Activity (Rattus norvegicus [38]): 83%

Emax [1]: 39% | IC50 (Melanocortin receptor 4 [11]): 4.3 nM | EC50 (Melanocortin receptor 4 [26]): 3.2 nM | Emax (Melanocortin receptor 4 [29]): 97% | EC50 [34]: 228 nM
SMILES: CC(=O)NC(C)(C)[C@H]1CC2(CCN(C(=O)[C@@H]3CN(C(C)(C)C)C[C@H]3c3ccc(F)cc3F)CC2)c2cc(Cl)c(C)cc21

Emax [1]: 41% | IC50 (Melanocortin receptor 4 [11]): 39.7 nM | EC50 (Melanocortin receptor 4 [26]): 37.2 nM | Emax (Melanocortin receptor 4 [29]): 111% | EC50 [34]: 620 nM
SMILES: CC(=O)NC(C)(C)[C@H]1CC2(CCN(C(=O)[C@H]3CN(C(C)(C)C)C[C@@H]3c3ccc(F)cc3F)CC2)c2cc(Cl)c(C)cc21

Emax [1]: 15% | IC50 (Melanocortin receptor 4 [11]): 89 nM | EC50 (Melanocortin receptor 4 [26]): 94 nM | Emax (Melanocortin receptor 4 [29]): 107%
SMILES: CC(=O)NC(C)(C)[C@@H]1CC2(CCN(C(=O)[C@H]3CN(C(C)(C)C)C[C@@H]3c3ccc(F)cc3F)CC2)c2cc(Cl)c(C)cc21
